Measurements reported in US20250171404A1, “PCNA INHIBITORS AND USES THEREOF” (CITY OF HOPE, priority 2022, published 2025).

Test system: DNA replication fork extension, SK-N-BE(2)-C or MDA-MB-231 cells
Test: DNA combing analysis (replication fork extension)
Type: cell-based
Conditions: synchronized cells, 20 minutes
Method: FIGS. 7A-7E. Transcription dependent effect on DNA replication and damage. FIG. 7A: Left: Schematic of the cell fractionation procedure. Right: MDA-MB-468 cells were treated by increasing concentrations of AOH1996 (5, 50, or 500 nM) for 24 h. Cells treated with DMSO were used as control. Whole cell extract (WCE) and protein fractions associated with actively transcribed chromatin (CB:RNA+) or with low or non-transcribed chromatin (CB:RNA−) were analyzed by Western blot using antibodies against PCNA, CAF-1, and MCM7. FIG. 7B: Synchronized cancer cells were sequentially incubated in the presence of CldU (light grey) and IdU (dark grey) before and after AOH1996 treatment, respectively. […] Middle and Right: Lengths of CldU (light grey) and IdU (dark grey) incorporated DNA segments measured for more than 30 independent DNA strands from the indicated cancer cell type were averaged and graphed ±S.D. FIG. 7C: Whole cell lysates were extracted from SK-N-AS cells homozygous of the wildtype RPB1 allele or the APIM-mutant allele. Histone H2A.X and γH2A.X was analyzed by Western blot after treatment with or without AOH1996 overnight. FIG. 7D: Histone H2A.X and γH2A.X in whole cell lysates from SK-N-AS cells were analyzed by Western blot after treatment with 500 nM AOH1996 and/or 50 μM DRB overnight. […]

COc1cccc(Oc2ccccc2NC(=O)CNC(=O)c2cccc3ccccc23)c1 [AOH1996, N-(2-((2-(3-methoxyphenoxy)phenyl)amino)-2-oxoethyl)-1-naphthamide]
length of IdU-incorporated DNA strands: IdU-incorporated DNA strands became significantly shorter in cells treated by AOH1996 than untreated control cells
